Source: ChEMBL document CHEMBL4765295, “Synthesis, pharmacological profile and 2D-QSAR studies of curcumin-amino acid conjugates as potential drug candidates” (Eur J Med Chem, 2020)
Where “and” joins values, the source holds several entries; their conditions need not be identical. Equal values may be shown once.

How the values were obtained:
Rattus norvegicus [1] = test: Antiinflammatory activity in Wistar rat model of carrageenan-induced paw edema assessed as reduction in thickness of paw edema at 10 mg/kg, ip pretreated for 1 hr followed by carrageenan challenge and measured after 1 hr (reference value: 2.41 +/-0.05 mm); format: functional; details: time 1 hr after carrageenan
Rattus norvegicus [2] = test: Anti-inflammatory activity in Wistar rat assessed as inhibition of carrageenan-induced paw edema at 10 mg/kg, ip pretreated for 1 hr followed by carrageenan challenge and measured after 1 hr relative to control (reference value: 0.00 +/-0.02 %); format: functional; details: time 2 hrs
Rattus norvegicus [3] = test: Antiinflammatory activity in Wistar rat model of carrageenan-induced paw edema assessed as reduction in thickness of paw edema at 10 mg/kg, ip pretreated for 1 hr followed by carrageenan challenge and measured after 2 hrs (reference value: 2.06 +/-0.09 mm); format: functional; details: time 3 hrs
Rattus norvegicus [4] = test: Anti-inflammatory activity in Wistar rat assessed as inhibition of carrageenan-induced paw edema at 10 mg/kg, ip pretreated for 1 hr followed by carrageenan challenge and measured after 2 hr relative to control (reference value: 0.00 +/-0.03 %); format: functional; details: time 3 hrs
Rattus norvegicus [5] = test: Antiinflammatory activity in Wistar rat model of carrageenan-induced paw edema assessed as reduction in thickness of paw edema at 10 mg/kg, ip pretreated for 1 hr followed by carrageenan challenge and measured after 3 hrs (reference value: 1.79 +/-0.07 mm); format: functional; details: time 4 hrs
Rattus norvegicus [6] = test: Anti-inflammatory activity in Wistar rat assessed as inhibition of carrageenan-induced paw edema at 10 mg/kg, ip pretreated for 1 hr followed by carrageenan challenge and measured after 3 hr relative to control (reference value: 0.00 +/-0.1 %); format: functional; details: time 4 hrs
Rattus norvegicus [7] = test: Antiinflammatory activity in Wistar rat model of carrageenan-induced paw edema assessed as reduction in thickness of paw edema at 10 mg/kg, ip pretreated for 1 hr followed by carrageenan challenge and measured after 4 hrs (reference value: 1.40 +/-0.10 mm); format: functional; details: time 5 hrs
Rattus norvegicus [8] = test: Anti-inflammatory activity in Wistar rat assessed as inhibition of carrageenan-induced paw edema at 10 mg/kg, ip pretreated for 1 hr followed by carrageenan challenge and measured after 4 hr relative to control (reference value: 0.00 +/-0.4 %); format: functional; details: time 5 hrs
Rattus norvegicus [9] = test: Antiinflammatory activity in Wistar rat model of carrageenan-induced paw edema assessed as reduction in thickness of paw edema at 10 mg/kg, ip pretreated for 1 hr followed by carrageenan challenge and measured after 24 hrs (reference value: 0.83 +/-0.08 mm); format: functional; details: time 25 hrs
Rattus norvegicus [10] = test: Anti-inflammatory activity in Wistar rat assessed as inhibition of carrageenan-induced paw edema at 10 mg/kg, ip pretreated for 1 hr followed by carrageenan challenge and measured after 24 hr relative to control (reference value: 0.00 +/-0.3 %); format: functional; details: time 25 hrs
Rattus norvegicus [11] = test: Anti-inflammatory activity in Wistar rat assessed as inhibition of carrageenan-induced paw edema at 10 mg/kg, ip pretreated for 1 hr followed by carrageenan challenge and measured after 4 hr relative to indomethacin; format: functional; details: time 5 hrs
[12] = Ulcerogenic activity in fasted albino mouse assessed as incidence of gastric ulceration at 10 mg/kg, po for 3 days (reference value: 0 %); format: toxicity, organism-based; details: in vivo, 72 h, time 3 day
[13] = Ulcerogenic activity in fasted albino mouse assessed as average number of ulcers in gastric mucosa at 10 mg/kg, po for 3 days (reference value: 0); format: toxicity, organism-based; details: in vivo, 72 h, time 3 day
[14] = Ulcerogenic activity in fasted albino mouse assessed as average severity of ulcers in gastric mucosa at 10 mg/kg, po for 3 days (reference value: 0); format: toxicity, organism-based; details: in vivo, 72 h, time 3 day
[15] = Ulcerogenic activity in fasted albino mouse assessed as ulcer index in gastric mucosa at 10 mg/kg, po for 3 days (reference value: 0); format: toxicity, organism-based; details: in vivo, 72 h, time 3 day
Splenocyte [16] = test: Immunomodulatory activity in Swiss albino mouse splenocytes assessed as cell viability at 10 uM by measuring stimulation index incubated for 72 hrs in presence of mitogenic stimulus phytohaemagglutinin by MTT assay (reference value: 1.00 +/- 0.24); format: functional
Splenocyte [17] = test: Immunomodulatory activity in Swiss albino mouse splenocytes assessed as cell viability at 10 uM by measuring inhibition of stimulation index incubated for 72 hrs in presence of mitogenic stimulus phytohaemagglutinin by MTT assay relative to indomethacin; format: functional; details: read-out: Activity
Peritoneal macrophage [18] = test: Antiinflammatory activity in […] mouse Peritoneal macrophages assessed as reduction in LPS-induced NO production by measuring reduction in stimulation index at 10 uM preincubated for 1 hr followed by LPS stimulation measured after 24 hrs by Griess method (reference value: 27.31 +/- 2.56 uM); format: functional; details: time 25 hrs
Peritoneal macrophage [19] = test: Antiinflammatory activity in […] mouse Peritoneal macrophages assessed as inhibition of LPS-induced NO production at 10 uM preincubated for 1 hr followed by LPS stimulation measured after 24 hrs by Griess method relative to control (reference value: 0.0 %); format: functional; parameters: scale not given: the % may be the effect or the level left; details: time 25 hrs
Mus musculus [20] = test: Analgesic activity in albino mouse assessed reduction in acetic acid-induced abdominal writhing by measuring writing reflex at 10 mg/kg, ip pretreated for 1 hr followed by acetic acid challenge and measured starting 5 mins post acetic acid challenge for 10 mins (reference value: 42.4 +/- 1.02); format: functional; details: time 75 min, 1.25 h
Mus musculus [21] = test: Analgesic activity in albino mouse assessed protection against acetic acid-induced abdominal writhing at 10 mg/kg, ip pretreated for 1 hr followed by acetic acid challenge and measured starting 5 mins post acetic acid challenge for 10 mins relative to control (reference value: 0 %); format: functional; details: time 75 min, 1.25 h
Mus musculus [22] = test: Analgesic activity in albino mouse assessed protection against acetic acid-induced abdominal writhing at 10 mg/kg, ip pretreated for 1 hr followed by acetic acid challenge and measured starting 5 mins post acetic acid challenge for 10 mins relative to indomethacin; format: functional; details: time 75 min, 1.25 h
Mus musculus [23] = test: Analgesic activity in albino mouse assessed as forepaw licking/jumping latency time at 10 mg/kg, ip measured after 30 mins by hot plate test (reference value: 5.02 +/- 0.09 sec); format: functional; details: 0.5 h
Mus musculus [24] = test: Analgesic activity in albino mouse assessed as protection at 10 mg/kg, ip measured after 30 mins by hot plate test (reference value: 0 %); format: functional; details: 0.5 h
Mus musculus [25] = test: Analgesic activity in albino mouse assessed as forepaw licking/jumping latency time at 10 mg/kg, ip measured after 60 mins by hot plate test (reference value: 3.42 +/- 0.03 sec); format: functional; details: 1 h
Mus musculus [26] = test: Analgesic activity in albino mouse assessed as protection at 10 mg/kg, ip measured after 60 mins by hot plate test (reference value: 0 %); format: functional; details: 1 h
Mus musculus [27] = test: Analgesic activity in albino mouse assessed as forepaw licking/jumping latency time at 10 mg/kg, ip measured after 90 mins by hot plate test (reference value: 2.72 +/- 0.01 sec); format: functional; details: 1.5 h
Mus musculus [28] = test: Analgesic activity in albino mouse assessed as protection at 10 mg/kg, ip measured after 90 mins by hot plate test (reference value: 0 %); format: functional; details: 1.5 h
Mus musculus [29] = test: Analgesic activity in albino mouse assessed as forepaw licking/jumping latency time at 10 mg/kg, ip measured after 120 mins by hot plate test (reference value: 2.62 +/- 0.06 sec); format: functional; details: 2 h
Mus musculus [30] = test: Analgesic activity in albino mouse assessed as protection at 10 mg/kg, ip measured after 120 mins by hot plate test (reference value: 0 %); format: functional; details: 2 h
Mus musculus [31] = test: Analgesic activity in albino mouse assessed as protection at 10 mg/kg, ip measured after 120 mins by hot plate test relative to indomethacin; format: functional; details: 2 h
Staphylococcus aureus = test: Antibacterial activity against Staphylococcus aureus ATCC 25923 incubated for 18 hrs by agar dilution method; format: functional
Streptococcus pyogenes = test: Antibacterial activity against Streptococcus pyogenes ATCC 19615 incubated for 18 hrs by agar dilution method; format: functional
Salmonella typhimurium = test: Antibacterial activity against Salmonella typhimurium ATCC 19430 incubated for 18 hrs by agar dilution assay; format: functional, Salmonella enterica subsp. enterica serovar Typhimurium; details: Salmonella enterica
Pseudomonas aeruginosa = test: Antibacterial activity against Pseudomonas aeruginosa ATCC 27853 incubated for 18 hrs by agar dilution assay; format: functional
Candida albicans = test: Antifungal activity against Candida albicans incubated for 18 to 24 hrs by CLSI method; format: functional; details: time 18-24 hrs
A549 = test: Antiproliferative activity against human A549 cells assessed as inhibition of cell growth after 72 hrs by MTT assay; format: functional, cell-based; details: A549, 72 h
MCF7 = test: Antiproliferative activity against human MCF7 cells assessed as inhibition of cell growth after 72 hrs by MTT assay; format: functional, cell-based; details: MCF7, 72 h
PC-3 = test: Antiproliferative activity against human PC3 cells assessed as inhibition of cell growth after 72 hrs by MTT assay; format: functional, cell-based; details: PC-3, 72 h
[32] = Toxicity in albino mouse assessed as induction of toxic symptoms at 50 to 100 mg/kg, ip measured after 24 hrs; format: organism-based; details: in vivo, dose 50-100 mg/kg

COc1cc(/C=C/C(=O)/C=C(O)/C=C/c2ccc(OC(=O)[C@@H](N)CCSC)c(OC)c2)ccc1OC(=O)[C@@H](N)CCSC.Cl.Cl
Activity (Rattus norvegicus [1]): 0.86 mm
inhibition in vivo at 10 mg/kg (Rattus norvegicus [2]): 64%
Activity (Rattus norvegicus [3]): 0.62 mm
inhibition in vivo at 10 mg/kg (Rattus norvegicus [4]): 70%
Activity (Rattus norvegicus [5]): 0.49 mm
inhibition in vivo at 10 mg/kg (Rattus norvegicus [6]): 73%
Activity (Rattus norvegicus [7]): 0.04 mm
inhibition in vivo at 10 mg/kg (Rattus norvegicus [8]): 97%
Activity (Rattus norvegicus [9]): 0.53 mm
inhibition in vivo at 10 mg/kg (Rattus norvegicus [10]): 36%
inhibition in vivo at 10 mg/kg (Rattus norvegicus [11]): 111%
Activity [12]: 0%
Activity [13]: 0
Activity [14]: 0
UI [15]: 0
Activity_index (Splenocyte [16]): 1.49
viability at 10 µM (Splenocyte [17]): 81.3%
Activity (Peritoneal macrophage [18]): 16.95 µM
Activity (Peritoneal macrophage [19]): 37.94%
Activity (Mus musculus [20]): 27.2
Activity (Mus musculus [21]): 35.8%
Activity (Mus musculus [22]): 58.1%
Time (Mus musculus [23]): 5.28 s
Activity (Mus musculus [24]): 5.2%
Time (Mus musculus [25]): 5.02 s
Activity (Mus musculus [26]): 46.8%
Time (Mus musculus [27]): 4.98 s
Activity (Mus musculus [28]): 83.1%
Time (Mus musculus [29]): 4.28 s
Activity (Mus musculus [30]): 63.4%
Activity (Mus musculus [31]): 151%
MIC (Staphylococcus aureus): 0.25 µg/mL and 0.355 µM
MIC (Streptococcus pyogenes): 0.5 µg/mL and 0.711 µM
MIC (Salmonella typhimurium): 0.125 µg/mL and 0.178 µM
MIC (Pseudomonas aeruginosa): 0.5 µg/mL and 0.711 µM
MIC (Candida albicans): 0.5 µg/mL and 0.711 µM
IC50 (A549): 32.8 µM
IC50 (MCF7): 11.3 µM
IC50 (PC-3): 42.6 µM
Activity [32]: Non-Toxic
